The text below walks through data of US12351580B2, “NLRP3 modulators” (Innate Tumor Immunity, Inc., priority 2017, dated 2025).

Where a name gives a salt, the structure may show the parent alone.

For this assay, the target named is T1, hNLRP3 (Homo sapiens, UniProt Q96P20).
T1 construct: THP-1 cells were purchased from the American Type Culture Collection; host or cells: THP-1 cells, PMA-differentiated
T1 sequence (Q96P20 whole entry): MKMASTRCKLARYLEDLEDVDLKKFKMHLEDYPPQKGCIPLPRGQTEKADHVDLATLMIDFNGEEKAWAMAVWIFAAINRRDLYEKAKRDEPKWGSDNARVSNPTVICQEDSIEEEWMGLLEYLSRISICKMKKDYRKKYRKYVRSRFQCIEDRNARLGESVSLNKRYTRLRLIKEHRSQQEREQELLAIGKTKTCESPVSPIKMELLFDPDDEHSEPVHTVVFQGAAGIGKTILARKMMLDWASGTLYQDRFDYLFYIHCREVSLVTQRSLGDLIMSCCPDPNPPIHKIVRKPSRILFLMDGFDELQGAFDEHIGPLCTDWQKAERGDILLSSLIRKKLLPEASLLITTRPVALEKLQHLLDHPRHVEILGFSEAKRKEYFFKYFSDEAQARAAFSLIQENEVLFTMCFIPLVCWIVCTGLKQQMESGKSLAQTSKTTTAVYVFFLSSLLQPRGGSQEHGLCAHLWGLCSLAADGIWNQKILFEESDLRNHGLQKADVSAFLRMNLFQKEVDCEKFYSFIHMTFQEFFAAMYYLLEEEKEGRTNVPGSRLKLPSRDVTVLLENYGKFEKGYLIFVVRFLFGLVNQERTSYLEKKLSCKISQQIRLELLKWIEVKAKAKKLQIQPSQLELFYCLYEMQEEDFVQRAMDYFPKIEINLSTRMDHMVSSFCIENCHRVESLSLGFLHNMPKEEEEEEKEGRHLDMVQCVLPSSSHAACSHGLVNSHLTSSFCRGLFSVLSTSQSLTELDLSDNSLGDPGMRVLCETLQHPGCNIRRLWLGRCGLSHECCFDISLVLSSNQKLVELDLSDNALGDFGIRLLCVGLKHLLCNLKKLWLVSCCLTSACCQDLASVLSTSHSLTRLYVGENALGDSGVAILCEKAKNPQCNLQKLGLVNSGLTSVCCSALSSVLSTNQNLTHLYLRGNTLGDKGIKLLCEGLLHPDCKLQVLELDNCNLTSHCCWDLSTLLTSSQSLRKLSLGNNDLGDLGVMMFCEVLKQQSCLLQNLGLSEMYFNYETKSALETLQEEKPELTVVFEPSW
Kind of assay: Measurement of IL-1β production in PMA-differentiated THP-1 cells (hNLRP3 agonist; ELISA, alternative and hTRF procedures). Format: cell-based. An outline of the steps:
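PMA-differentiated THP-1 cells (PMA […] 24 h, 20 μg/ml overnight, or 50 ng/ml overnight, by procedure) replated in RPMI with 2% FBS and exposed to compound (e.g. 100–0.1 μM, 1% DMSO; hTRF format top 10 μM) for 4 h, 2 h, or 2 h respectively. Supernatant IL-1β measured by ELISA, or by hTRF with antibodies diluted 1:40.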
`CCNCc1nc2c(N)nc3cc(-c4cc[nH]n4)ccc3c2[nH]1` [Compound 101, 2-[(Ethylamino)methyl]-7-(1H-pyrazol-3-yl)-1H-imidazo[4,5-c]quinolin-4-amine hydrochloride]: the EC50 (commonly the concentration at which the effect is half-maximal) was 270 nM.
In the case of `CC(=O)N(C)Cc1nc2c(N)nc3cc(-n4cccn4)ccc3c2[nH]1` [Compound 102, N-((4-Amino-7-(1H-pyrazol-1-yl)-1H-imidazo[4,5-c]quinolin-2-yl)methyl)-N-methylacetamide], the EC50 was found to be 1600 nM.
In the case of `CN(Cc1nc2c(N)nc3cc(-n4cccn4)ccc3c2[nH]1)S(C)(=O)=O` [Compound 119], the EC50 was found to be 1380 nM.
Turning to `CN(Cc1nc2c(N)nc3cc(-c4cc[nH]n4)ccc3c2[nH]1)C(=O)C1CC1` [Compound 120], the response was half-maximal at 1690 nM (EC50).
Molecule `CCN(Cc1nc2c(N)nc3cc(-c4cc[nH]n4)ccc3c2n1C)C(C)=O` [Compound 121] showed an EC50 of 1820 nM. The EC50 values of the last two molecules are within 1.5-fold of each other.
Next, `CCC(=O)N(C)Cc1nc2c(N)nc3cc(-c4cc[nH]n4)ccc3c2[nH]1` [Compound 122]: 1400 nM; `CCN(Cc1nc2c(N)nc3cc(-c4cc[nH]n4)ccc3c2[nH]1)S(C)(=O)=O` [Compound 124]: 2400 nM; `CCC(=O)N(CC)Cc1nc2c(N)nc3cc(-c4cc[nH]n4)ccc3c2[nH]1` [Compound 125]: 2100 nM.
Next, `CCN(Cc1nc2c(N)nc3cc(-c4cc[nH]n4)ccc3c2[nH]1)C(=O)NC` [Compound 128]: 2900 nM; `CC(=O)N(C)Cc1nc2c(N)nc3cc(-c4cc[nH]n4)ccc3c2[nH]1` [Compound 129]: 3600 nM.
Next, `CCN(Cc1nc2c(N)nc3cc(-n4cccn4)ccc3c2[nH]1)C(N)=O` [Compound 130]: 3300 nM; `NCc1nc2c(N)nc3cc(-c4cc[nH]n4)ccc3c2[nH]1` [Compound 131]: 3500 nM; `CCN(Cc1nc2c(N)nc3cc(-n4nccn4)ccc3c2[nH]1)C(C)=O` [Compound 132]: 3500 nM.
`CC(c1nc2c(N)nc3cc(-c4cccnc4)ccc3c2[nH]1)N1CCCC1=O` (centres unmarked) [Compound 138]: the EC50 was 6700 nM.
For the molecule `CC(=O)N(Cc1nc2c(N)nc3cc(-c4cc[nH]n4)ccc3c2[nH]1)C(C)C` [Compound 140], the concentration for a half-maximal effect (EC50) was found to be 7300 nM.
The result for `Nc1nc2ccc(Cl)cc2c2[nH]c(CN3CCCC3=O)nc12` [Compound 141] reads 9000 nM.
The molecule `CC(C)(C)OC(=O)NCc1nc2c(N)nc3cc(-c4cc[nH]n4)ccc3c2[nH]1` [Compound 142] came in with an EC50 of 9100 nM.
`Nc1nc2cc(Cl)ccc2c2[nH]c(CN3CCCC3=O)nc12` [Compound 143]: the EC50 came to 9400 nM.
The result for `Nc1nc2cc(-c3ccc(Cl)nc3)ccc2c2[nH]c(CN3CCCC3=O)nc12` [Compound 153] reads 12000 nM; that for `CCNCc1nc2c(N)nc3cc(OC)ccc3c2[nH]1` [Compound 154], 16100 nM.
The result for `CCN(Cc1nc2c(N)nc3cc(-c4ncc[nH]4)ccc3c2[nH]1)C(=O)OC(C)(C)C` [Compound 155] reads 17400 nM; that for `Nc1nc2cc(-n3ncc4ccccc43)ccc2c2[nH]c(CN3CCCC3=O)nc12` [Compound 157], 23400 nM; that for `CCN(Cc1nc2c(N)nc3cc(OC)ccc3c2[nH]1)C(C)=O` [Compound 158, N-((4-Amino-7-methoxy-1H-imidazo[4,5-c]quinolin-2-yl)methyl)-N-ethylacetamide], 24500 nM.
Next, `CCN(Cc1nc2c(N)nc3cc(Cl)c(Cl)cc3c2[nH]1)C(C)=O` [Compound 159]: 25900 nM.
`CCNCc1nc2c(N)nc3cc(-c4ncc[nH]4)ccc3c2[nH]1` [Compound 162] showed a half-maximal effective concentration (EC50) of 42000 nM.
The result for `CCN(Cc1nc2c(N)nc3cc(-c4cc[nH]n4)ccc3c2[nH]1)CC(C)C` [Compound 453, 2-{[ethyl(2-methylpropyl)amino]methyl}-7-(1H-pyrazol-3-yl)-1H-imidazo[4,5-c]quinolin-4-amine] reads 710 nM.
Take `CCN(CC)C(=O)N(CC)Cc1nc2c(N)nc3cc(-c4cc[nH]n4)ccc3c2[nH]1` [Compound 454, 1-{[4-amino-7-(1H-pyrazol-3-yl)-1H-imidazo[4,5-c]quinolin-2-yl]methyl}-1,3,3-triethylurea]: the EC50 stood at 740 nM.
The result for `CCN(Cc1nc2c(N)nc3cc(-c4cc[nH]n4)ccc3c2[nH]1)C(=O)N1CCOCC1` [Compound 455, N-{[4-amino-7-(1H-pyrazol-3-yl)-1H-imidazo[4,5-c]quinolin-2-yl]methyl}-N-ethylmorpholine-4-carboxamide] reads 2000 nM.
`CCN(Cc1nc2c(N)nc3cc(-c4cc[nH]n4)ccc3c2[nH]1)C(=O)NC(C)(C)C` [Compound 456, 1-{[4-amino-7-(1H-pyrazol-3-yl)-1H-imidazo[4,5-c]quinolin-2-yl]methyl}-3-tert-butyl-1-ethylurea] returned an EC50 of 2200 nM.
The result for `CCNC(=O)N(CC)Cc1nc2c(N)nc3cc(-c4cc[nH]n4)ccc3c2[nH]1` [Compound 457, 1-{[4-amino-7-(1H-pyrazol-3-yl)-1H-imidazo[4,5-c]quinolin-2-yl]methyl}-1,3-diethylurea] reads 6600 nM.
The result for `CCN(Cc1nc2c(N)nc3cc(-c4cc[nH]n4)ccc3c2[nH]1)S(=O)(=O)N(C)C` [Compound 458, 2-{[(dimethylsulfamoyl)(ethyl)amino]methyl}-7-(1H-pyrazol-3-yl)-1H-imidazo[4,5-c]quinolin-4-amine] reads 2100 nM; that for `CCN(Cc1nc2c(N)nc3cc(-c4cc[nH]n4)ccc3c2[nH]1)S(=O)(=O)C(C)C` [Compound 459, N-{[4-amino-7-(1H-pyrazol-3-yl)-1H-imidazo[4,5-c]quinolin-2-yl]methyl}-N-ethylpropane-2-sulfonamide], 6700 nM; that for `CCCS(=O)(=O)N(CC)Cc1nc2c(N)nc3cc(-c4cc[nH]n4)ccc3c2[nH]1` [Compound 460, N-{[4-amino-7-(1H-pyrazol-3-yl)-1H-imidazo[4,5-c]quinolin-2-yl]methyl}-N-ethylpropane-1-sulfonamide], 1500 nM.
Next, `CCNCc1nc2c(N)nc3cc(-c4ccn[nH]4)ccc3c2n1CCO` [Compound 462, 2-[4-Amino-2-[(ethylamino)methyl]-7-(1H-pyrazol-5-yl)-1H-imidazo[4,5-c]quinolin-1-yl]ethan-1-ol]: 5500 nM; `CCn1c(CN2CCCC2=O)nc2c(N)nc3cc(-c4cccs4)ccc3c21` [Compound 463, 1-{[4-amino-1-ethyl-7-(thiophen-2-yl)-1H-imidazo[4,5-c]quinolin-2-yl]methyl}pyrrolidin-2-one]: 220 nM; `CCNCc1nc2c(N)nc3cc(-c4ccn[nH]4)ccc3c2n1CC` [Compound 464, 1-ethyl-2-[(ethylamino)methyl]-7-(1H-pyrazol-5-yl)-1H-imidazo[4,5-c]quinolin-4-amine]: 240 nM.
In turn, `CCn1c(CN2CCCC2=O)nc2c(N)nc3cc(-n4cccn4)ccc3c21` [Compound 465, 1-{[4-amino-1-ethyl-7-(1H-pyrazol-1-yl)-1H-imidazo[4,5-c]quinolin-2-yl]methyl}pyrrolidin-2-one] came in with an EC50 of 1000 nM.
In turn, `CCn1c(CN2CCCC2=O)nc2c(N)nc3cc(-c4ccn[nH]4)ccc3c21` [Compound 466, 1-{[4-amino-1-ethyl-7-(1H-pyrazol-5-yl)-1H-imidazo[4,5-c]quinolin-2-yl]methyl}pyrrolidin-2-one] displayed an EC50 of 1100 nM.
Next, `CCNCc1nc2c(N)nc3cc(-n4cccn4)ccc3c2n1CC` [Compound 467, 1-ethyl-2-((ethylamino)methyl)-7-(1H-pyrazol-1-yl)-1H-imidazo[4,5-c]quinolin-4-amine]: 1200 nM; `CCNCc1nc2c(N)nc3cc(-c4cccs4)ccc3c2n1CC` [Compound 468, 1-ethyl-2-[(ethylamino)methyl]-7-(thiophen-2-yl)-1H-imidazo[4,5-c]quinolin-4-amine]: 2100 nM; `Nc1nc2cc(-c3cccs3)ccc2c2c1nc(CN1CCCC1=O)n2CCO` [Compound 469, 1-{[4-amino-1-(2-hydroxyethyl)-7-(thiophen-2-yl)-1H-imidazo[4,5-c]quinolin-2-yl]methyl}pyrrolidin-2-one]: 670 nM.
The result for `CCC(=O)N(CC)Cc1nc2c(N)nc3cc(-c4cccs4)ccc3c2n1CCO` [Compound 470, N-{[4-amino-1-(2-hydroxyethyl)-7-(thiophen-2-yl)-1H-imidazo[4,5-c]quinolin-2-yl]methyl}-N-ethylpropanamide] reads 690 nM.
Next, `CCNCc1nc2c(N)nc3cc(-c4cccs4)ccc3c2n1CCO` [Compound 471, 2-{4-amino-2-[(ethylamino)methyl]-7-(thiophen-2-yl)-1H-imidazo[4,5-c]quinolin-1-yl}ethan-1-ol]: 1200 nM.
Molecule `CCN(Cc1nc2c(N)nc3cc(-c4cccs4)ccc3c2n1CC)C(C)=O` [Compound 472, N-{[4-amino-1-ethyl-7-(thiophen-2-yl)-1H-imidazo[4,5-c]quinolin-2-yl]methyl}-N-ethylacetamide] showed an EC50 of 430 nM.
In turn, `CCC(=O)N(CC)Cc1nc2c(N)nc3cc(-c4ccn[nH]4)ccc3c2n1CC` [Compound 473, N-{[4-amino-1-ethyl-7-(1H-pyrazol-5-yl)-1H-imidazo[4,5-c]quinolin-2-yl]methyl}-N-ethylpropanamide] registered a concentration giving a half-maximal response (EC50) of 220 nM.
In turn, `CCN(Cc1nc2c(N)nc3cc(-c4ccn[nH]4)ccc3c2n1CC)C(C)=O` [Compound 474, N-{[4-amino-1-ethyl-7-(1H-pyrazol-5-yl)-1H-imidazo[4,5-c]quinolin-2-yl]methyl}-N-ethylacetamide] gave an EC50 of 1200 nM.
Next, `CCC(=O)N(CC)Cc1nc2c(N)nc3cc(-c4ccn[nH]4)ccc3c2n1CCO` [Compound 475, N-{[4-amino-1-(2-hydroxyethyl)-7-(1H-pyrazol-5-yl)-1H-imidazo[4,5-c]quinolin-2-yl]methyl}-N-ethylpropanamide]: 23000 nM.
